Data published in ChEMBL document CHEMBL1146018, “The design and synthesis of a tricyclic single-nitrogen scaffold that serves as a 5-HT2C receptor agonist” (Bioorg Med Chem Lett, 2006).
The source made the active and inactive calls. The calls are words filed in the database; no cut-off is given here.

Columns and labels:
[1] = biological target: T1, 5-hydroxytryptamine receptor 2C (Homo sapiens, UniProt P28335); experiment: Binding affinity to 5HT2C
T1 sequence (P28335 whole entry): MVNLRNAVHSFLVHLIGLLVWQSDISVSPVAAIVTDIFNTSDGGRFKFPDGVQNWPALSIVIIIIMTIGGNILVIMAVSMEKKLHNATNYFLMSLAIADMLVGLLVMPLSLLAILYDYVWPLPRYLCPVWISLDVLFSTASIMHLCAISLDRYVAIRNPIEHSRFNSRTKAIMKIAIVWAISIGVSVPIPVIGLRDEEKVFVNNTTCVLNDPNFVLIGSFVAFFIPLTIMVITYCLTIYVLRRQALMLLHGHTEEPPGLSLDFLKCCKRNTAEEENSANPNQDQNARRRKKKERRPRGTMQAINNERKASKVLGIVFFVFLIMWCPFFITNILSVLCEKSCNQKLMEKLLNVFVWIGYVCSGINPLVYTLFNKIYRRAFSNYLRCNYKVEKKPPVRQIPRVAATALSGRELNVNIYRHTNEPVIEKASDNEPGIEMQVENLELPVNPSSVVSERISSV

[2] = biological target: Serotonin 2 receptors; 5-HT2a & 5-HT2c (Homo sapiens) (UniProt P28223+P28335); experiment: Selectivity for 5HT2C over 5HT2A; type: protein assay
[3] = biological target: Serotonin receptor (2b and 2c) (Homo sapiens) (UniProt P41595+P28335); experiment: Selectivity for 5HT2C over 5HT2B; type: protein assay
[4] = biological target: T1, 5-hydroxytryptamine receptor 2C; experiment: […] of 5HT2C assessed as intracellular calcium concentration; type: functional, cell-based
[5] = Clearance in dog at 1.0 mg/kg, iv; type: ADME, organism-based, Canis lupus familiaris; design: dose 1 mg/kg, route intravenous; details: in vivo
[6] = Half life in dog at 1.0 mg/kg, iv; type: ADME, organism-based, Canis lupus familiaris; design: dose 1 mg/kg, route intravenous; details: in vivo
[7] = Oral bioavailability in dog at 10.6 mg/kg, po; type: ADME, organism-based, Canis lupus familiaris; details: in vivo
[8] = test system: Rattus norvegicus; experiment: Reduction of food intake in ip dosed rat; type: functional, organism-based
[9] = test system: Rattus norvegicus; experiment: Reduction of food intake in rat at 10 mg/kg, ip after 4 hrs; type: functional, organism-based; design: dose 10 mg/kg
[10] = test system: Rattus norvegicus; experiment: Reduction of food intake in rat at 20 mg/kg, ip after 24 hrs; type: functional, organism-based; design: dose 20 mg/kg
[11] = Oral bioavailability in rat at 10.6 mg/kg, po; type: ADME, organism-based; details: in vivo
[12] = Ratio of drug level in brain against plasma measured as AUC cortex/AUC plasma at 1.2 mg/kg, iv; type: ADME, organism-based; design: dose 1.2 mg/kg, route intravenous; details: rat, read-out: BPR
[13] = Clearance in rat at 1.2 mg/kg, iv; type: ADME, organism-based; design: dose 1.2 mg/kg, route intravenous; details: in vivo
[14] = Half life in rat at 1.2 mg/kg, iv; type: ADME, organism-based; design: dose 1.2 mg/kg, route intravenous; details: in vivo

Sequence of Serotonin 2 receptors; 5-HT2a & 5-HT2c (Homo sapiens) (P28223 whole entry, looked up, one chain of several): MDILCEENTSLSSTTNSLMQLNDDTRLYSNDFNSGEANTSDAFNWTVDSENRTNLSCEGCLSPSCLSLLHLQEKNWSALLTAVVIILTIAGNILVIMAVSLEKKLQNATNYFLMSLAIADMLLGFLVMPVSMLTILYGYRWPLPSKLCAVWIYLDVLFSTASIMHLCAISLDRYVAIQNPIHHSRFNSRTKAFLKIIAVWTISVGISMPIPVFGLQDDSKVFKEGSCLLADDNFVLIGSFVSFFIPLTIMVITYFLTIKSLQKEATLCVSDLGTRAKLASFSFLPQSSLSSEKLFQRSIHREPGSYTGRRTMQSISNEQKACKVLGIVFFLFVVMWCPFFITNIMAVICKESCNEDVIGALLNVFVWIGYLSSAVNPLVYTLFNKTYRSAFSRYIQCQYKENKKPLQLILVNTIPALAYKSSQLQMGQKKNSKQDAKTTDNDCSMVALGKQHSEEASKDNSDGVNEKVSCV

C[C@H]1c2c(ccc(Cl)c2Cl)[C@H]2CNC[C@H]21
Ki [1]: 5 nM
Selectivity ratio [2]: 50
Selectivity ratio [3]: 73

Cc1cccc2c1C(C)[C@@H]1CNC[C@H]21 (mixture of isomers)
Ki [1]: 3380 nM

CC1c2cc(Cl)c(Cl)cc2[C@H]2CNC[C@@H]12 (mixture of isomers)
Ki [1]: 103 nM

Cc1cc2c(cc1Cl)[C@H](C)[C@@H]1CNC[C@H]21
Ki [1]: 155 nM
Selectivity ratio [2]: 8
Selectivity ratio [3]: 32

Cc1cc2c(cc1Cl)[C@H]1CNC[C@H]1[C@H]2C
Ki [1]: 134 nM
Selectivity ratio [2]: 11
Selectivity ratio [3]: 14

C[C@H]1c2cc(Cl)c(O)cc2[C@H]2CNC[C@H]21
Ki [1]: 27 nM
Selectivity ratio [2]: 27
Selectivity ratio [3]: 63

CC1c2cc(F)ccc2[C@H]2CNC[C@@H]12 (mixture of isomers)
Ki [1]: > 10000 nM

COc1cc2c(cc1Cl)C(C)[C@@H]1CNC[C@H]21 (mixture of isomers)
Ki [1]: 530 nM

COc1cc2c(cc1Cl)[C@H](C)[C@@H]1CNC[C@H]21
Ki [1]: 14 nM
Selectivity ratio [2]: 73
Selectivity ratio [3]: 235
EC50 [4]: 6 nM
clearance [5]: 39 mL/min/kg
half-life [6]: 3.5 h
bioavailability [7]: 80%
Activity [8]: Dose-dependent effect
Activity [9]: Active
Activity [10]: Active
bioavailability [11]: 40%
Kp [12]: 15
clearance [13]: 31 mL/min/kg
half-life [14]: 1.8 h

Cc1cc2c(cc1Cl)C(C)[C@@H]1CNC[C@H]21 (mixture of isomers)
Ki [1]: 107 nM

C[C@H]1c2cc(Cl)ccc2[C@H]2CNC[C@H]21
Ki [1]: 911 nM
Selectivity ratio [2]: 56
Selectivity ratio [3]: 132
EC50 [4]: 54 nM

Cc1cc2c(cc1Br)[C@H]1CNC[C@H]1C2C (mixture of isomers)
Ki [1]: 207 nM

Cc1cccc2c1[C@H]1CNC[C@H]1C2C (mixture of isomers)
Ki [1]: 1850 nM

C[C@@H]1c2cc(Cl)c(Cl)cc2[C@H]2CNC[C@@H]12
Ki [1]: 1140 nM
Selectivity ratio [2]: 2
Selectivity ratio [3]: 3

CC1c2ccc(F)cc2[C@H]2CNC[C@@H]12 (mixture of isomers)
Ki [1]: 3010 nM

Cc1ccc2c(c1)C(C)[C@@H]1CNC[C@H]21 (mixture of isomers)
Ki [1]: 1700 nM

CCOc1cc2c(cc1Cl)[C@H](C)[C@@H]1CNC[C@H]21
Ki [1]: 231 nM
Selectivity ratio [2]: 9
Selectivity ratio [3]: 31

Cc1cc2c(cc1Br)C(C)[C@@H]1CNC[C@H]21 (mixture of isomers)
Ki [1]: 463 nM

Cc1cc2c(cc1Cl)[C@H]1CNC[C@H]1C2C (mixture of isomers)
Ki [1]: 465 nM

Clc1ccc2c(c1)C[C@@H]1CNC[C@H]21
Selectivity ratio [2]: 14
Selectivity ratio [3]: 19
EC50 [4]: 11 nM

C[C@H]1c2cc(Cl)c(Cl)cc2[C@H]2CNC[C@H]21
Ki [1]: 155 nM
Selectivity ratio [2]: 8
Selectivity ratio [3]: 32

COc1cc2c(cc1Br)[C@H](C)[C@@H]1CNC[C@H]21
Ki [1]: 27 nM
Selectivity ratio [2]: 12
Selectivity ratio [3]: 81

Cc1ccc2c(c1)[C@H]1CNC[C@H]1C2C (mixture of isomers)
Ki [1]: 3310 nM
